Values belong to the compound of their own block, whether it stands above or below them. Where a SMILES comes first, the peptide text is derived from it. Bridges are numbered along the chain shown (N, C = ends). [ ]: non-standard residue; d: D form. The star is where a group is joined. hPhe(3,5-F2-4-CF3) = N[C@@H](CCc1cc(F)c(C(F)(F)F)c(F)c1)C(=O)O; NPrPhe(4-CF3) = CCCN[C@@H](Cc1ccc(C(F)(F)F)cc1)C(=O)O; NMeGly(cPent) = CN[C@H](C(=O)O)C1CCCC1; NMeD = CN[C@@H](CC(=O)O)C(=O)O; Ac4c(3-oxa) = NC1(C(=O)O)COC1; NMeL = CN[C@@H](CC(C)C)C(=O)O; Morpholide = C1CN(*)CCO1; Sar = CNCC(=O)O
Legend:
[1] = test system: human lung cancer strain NCI-H441; format: cell-based
Outline: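 Signal came from […] measured per well once the reagent was added. Beforehand, cells were cultured at 37°C and 5% carbon dioxide on a compound series serially diluted in dimethyl sulfoxide.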

HRAS wild-type protein = HRAS wild-type protein (Homo sapiens, UniProt P01112); test: Binding to HRAS by surface plasmon resonance (SPR), KD and KD ratio to KRAS
HRAS wild-type protein, sequence (P01112 whole entry): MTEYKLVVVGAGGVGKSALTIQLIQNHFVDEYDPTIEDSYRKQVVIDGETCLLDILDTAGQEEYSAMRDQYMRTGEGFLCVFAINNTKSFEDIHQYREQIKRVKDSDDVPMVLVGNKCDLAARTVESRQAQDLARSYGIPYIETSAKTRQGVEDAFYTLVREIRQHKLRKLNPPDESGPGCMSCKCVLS
Outline: (§1)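 Each cycle, GDP-bound biotin-Avi RAS was captured (~100–300 RU), compound concentrations were injected low to high for 75 s each at 100 µL/min, then the chip was regenerated. Buffer: HBS pH 7.4, 10 mM MgCl2, 10 µM GDP, 1 mM DTT, 4% DMSO; 30°C. KD from a 1:1 binding model.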

[2] = molecular target: GDP-bound NRAS wild-type protein (Homo sapiens, UniProt P01111); test: Binding to NRAS by surface plasmon resonance (SPR), KD and KD ratio to KRAS
GDP-bound NRAS wild-type protein, sequence (P01111 whole entry): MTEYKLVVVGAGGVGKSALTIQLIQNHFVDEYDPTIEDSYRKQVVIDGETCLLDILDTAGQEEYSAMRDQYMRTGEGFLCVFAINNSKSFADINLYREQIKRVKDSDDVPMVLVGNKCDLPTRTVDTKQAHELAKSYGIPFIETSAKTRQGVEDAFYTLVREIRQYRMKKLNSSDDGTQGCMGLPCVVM
Outline: as §1

[3] = ratio of KD with respect to HRAS wild-type protein to KD with respect to KRAS
[4] = ratio of KD with respect to GDP-bound NRAS wild-type protein to KD with respect to KRAS
[5] = ratio of KD for HRAS wild-type protein to KD for KRAS
[6] = ratio of KD for GDP-bound NRAS wild-type protein to KD for KRAS
[7] = ratio of the KD value with respect to HRAS wild-type protein to the KD value with respect to KRAS
[8] = ratio of the KD value with respect to GDP-bound NRAS wild-type protein to the KD value with respect to KRAS
[9] = ratio of KD value for HRAS wild-type protein to KD value for KRAS (SPR)
[10] = ratio of KD value for GDP-bound NRAS wild-type protein to KD value for KRAS (SPR)

Compound: CCO[C@@H]1C[C@H]2C(=O)NC3(CCC3)C(=O)N(C)[C@@H](C3CCCC3)C(=O)N(C)[C@H](C(=O)N(C)CC)CC(=O)N(C)[C@@H](CC3CC3)C(=O)N[C@@H]([C@@H](C)CC)C(=O)N(C)CC(=O)N(C)[C@H]3C/C=C\CCN(C3=O)[C@@H](Cc3ccc(C(F)(F)F)cc3)C(=O)N(C)CC(=O)N[C@@H](CCc3cc(F)c(C(F)(F)F)c(F)c3)C(=O)N2C1 [PP1301]
IC50 [1]: 4.7 nM
HRAS /KRAS (HRAS wild-type protein; [3]): A (a compound having 10 or more and less than 20 is denoted as A)
NRAS /KRAS [2, 4]: A (a compound having 10 or more and less than 20 is denoted as A)

Compound: CCO[C@@H]1C[C@H]2C(=O)NC3(CC(C)(C)C3)C(=O)N(C)[C@@H](C3CCCC3)C(=O)N(C)[C@H](C(=O)N(C)C)CC(=O)N(C)[C@@H](CC(C)C)C(=O)N[C@@H]([C@@H](C)CC)C(=O)N(C)CC(=O)N(C)[C@H]3C/C=C\CCN(C3=O)[C@@H](Cc3ccc(C(F)(F)F)cc3)C(=O)N(C)CC(=O)N[C@@H](CCc3cc(F)c(Cl)c(F)c3)C(=O)N2C1 [PP1761]
IC50 [1]: 5.2 nM
HRAS /KRAS (HRAS wild-type protein; [9]): A (a compound having 10 or more and less than 20 is denoted as A)
NRAS /KRAS [2, 10]: A (a compound having 10 or more and less than 20 is denoted as A)

Compound: CCC[C@H]1C(=O)N[C@@H]([C@@H](C)CC)C(=O)N(C)CC(=O)N(C)[C@H]2C/C=C\CCN(C2=O)[C@@H](Cc2ccc(C(F)(F)F)cc2)C(=O)N(C)CC(=O)N[C@@H](CCc2cc(F)c(C(F)(F)F)c(F)c2)C(=O)N2C[C@H](OCC)C[C@H]2C(=O)NC2(CCC2)C(=O)N(C)[C@@H](C2CCCC2)C(=O)N(C)[C@H](C(=O)N(CC)CC)CC(=O)N1C [PP1310]
IC50 [1]: 4.5 nM
HRAS /KRAS (HRAS wild-type protein; [3]): A (a compound having 10 or more and less than 20 is denoted as A)
NRAS /KRAS [2, 4]: AA (a compound having 20 or more is denoted as AA)

Continued by falling IC50 [1], values first:

IC50 [1]: 123 nM
Compound: CCCN1C(=O)CN(C)C(=O)CN(C)C(=O)[C@H]([C@@H](C)CC)NC(=O)[C@H](CC(C)C)N(C)C(=O)C[C@@H](C(=O)N2CCOCC2)N(C)C(=O)[C@H](C2CCCC2)N(C)C(=O)C2(COC2)NC(=O)[C@@H]2CCCN2C(=O)[C@H](CCc2cc(F)c(C(F)(F)F)c(F)c2)NC(=O)CN(C)C(=O)[C@@H]1Cc1ccc(C(F)(F)F)cc1 [PP0765] ([NMeL]I[Sar][Sar][NPrPhe(4-CF3)][Sar][hPhe(3,5-F2-4-CF3)]P[Ac4c(3-oxa)][NMeGly(cPent)][NMeD]-Morpholide; lactam N-11)
HRAS /KRAS (HRAS wild-type protein; [5]): C (A compound having a KD ratio of 0.1 or more and less than 3 is denoted as C)
NRAS /KRAS [2, 6]: B (a compound having 3 or more and less than 10 is denoted as B)

IC50 [1]: 20.2 nM
Compound: CCC[C@H]1C(=O)N[C@@H]([C@@H](C)CC)C(=O)N(C)CC(=O)N(C)[C@H]2C/C=C\CCN(C2=O)[C@@H](Cc2ccc(C(F)(F)F)cc2)C(=O)N(C)CC(=O)N[C@@H](CCc2ccc3c(C)cn(C)c3c2)C(=O)N2C[C@H](OCC)C[C@H]2C(=O)NC2(CC(C)(C)C2)C(=O)N(C)[C@@H](C(CC)CC)C(=O)N(C)[C@H](C(=O)N(C)C)CC(=O)N1C [PP2908]
HRAS /KRAS (HRAS wild-type protein; [5]): A (a compound having 10 or more and less than 20 is denoted as A)
NRAS /KRAS [2, 6]: AA (a compound having 20 or more is denoted as AA)

IC50 [1]: 11.8 nM
Compound: C#CC[C@H]1C(=O)N[C@@H]([C@@H](C)CC)C(=O)N(C)CC(=O)N(C)[C@H]2C/C=C\CCN(C2=O)[C@@H](Cc2ccc(C(F)(F)F)cc2)C(=O)N(C)CC(=O)N[C@@H](CCc2cc(F)c(C(F)(F)F)c(F)c2)C(=O)N2C[C@@H](C)C[C@H]2C(=O)NC2(CC(C)(C)C2)C(=O)N(C)[C@@H](C2CCCC2)C(=O)N(C)[C@H](C(=O)N(C)CC)CC(=O)N1C [PP2075]
HRAS /KRAS (HRAS wild-type protein; [7]): A (a compound having 10 or more and less than 20 is denoted as A)
NRAS /KRAS [2, 8]: A (a compound having 10 or more and less than 20 is denoted as A)

IC50 [1]: 8.5 nM
Compound: CCCN(C)C(=O)[C@@H]1CC(=O)N(C)[C@@H](C2CCC2)C(=O)N[C@@H]([C@@H](C)CC)C(=O)N(C)CC(=O)N(C)[C@H]2C/C=C\CCN(C2=O)[C@@H](Cc2ccc(C(F)(F)F)cc2)C(=O)N(C)CC(=O)N[C@@H](CCc2ccc(C(F)(F)F)c(OC)c2)C(=O)N2C[C@@H](C)C[C@H]2C(=O)NC2(CCC2)C(=O)N(C)[C@@H](C2CCCC2)C(=O)N1C [PP2072]
HRAS /KRAS (HRAS wild-type protein; [7]): A (a compound having 10 or more and less than 20 is denoted as A)
NRAS /KRAS [2, 8]: A (a compound having 10 or more and less than 20 is denoted as A)

IC50 [1]: 3.5 nM
Compound: CCO[C@@H]1C[C@H]2C(=O)N(C)C3(CCC3)C(=O)N(C)[C@@H](C3CCCC3)C(=O)N(C)[C@H](C(=O)N(C)C)CC(=O)N(C)[C@@H](C3CC3)C(=O)N[C@@H]([C@@H](C)CC)C(=O)N(C)CC(=O)N(C)[C@H]3C/C=C\CCN(C3=O)[C@@H](Cc3ccc(C)cc3)C(=O)N(C)CC(=O)N[C@@H](CCc3cc(F)c(C(F)(F)F)c(F)c3)C(=O)N2C1 [PP1783]
HRAS /KRAS (HRAS wild-type protein; [9]): B (a compound having 3 or more and less than 10 is denoted as B)
NRAS /KRAS [2, 10]: A (a compound having 10 or more and less than 20 is denoted as A)
